Data set [1] concerns the target T1, PDE3 (human platelet) (Homo sapiens, UniProt Q14432).
T1 construct: (human platelet); from tissue; host or cells: human platelets
Nature of the data set: Inhibition of phosphodiesterase (PDE) type 3 isoenzyme. It counts as biochemical.

In data set [2] the test system is PDE4 (human neutrophil). Nature of the data set: Inhibition of phosphodiesterase (PDE) type 4 isoenzyme. The class given is biochemical.
Data set [3] is described as follows: Intravenous administration to urethane anaesthetised guinea-pigs, mean arterial blood pressure. The class given is in vivo, guinea-pig. The settings on record: intravenous 1 to 100 μg/kg, evidence that the compound had come out of solution. Here is the method:
2. […] The compound was dissolved in DMSO then diluted with saline (there was evidence that the compound had come out of solution).

Data set [4] has as its system histamine induced bronchospasm. Kind of data set: Histamine induced bronchospasm in guinea-pigs after dry powder exposure. The following applies: dry powder 2.5 and 25% in lactose, over a 5.5 hour period. It counts as in vivo, guinea-pig. Here is the method: 1. The compound of Example 1, 9,10-Dimethoxy-2-(2,4,6-trimethylphenylimino)-3-(N-carbamoyl-2-aminoethyl)-3,4,6,7-tetrahydro-2H-pyrimido[6,1-a]isoquinolin-4-one, was tested in a model of histamine induced bronchospasm. Conscious guinea-pigs were exposed to dry powder (micronised) compound. The drug was blended with lactose so that the final concentration was 0.25, 2.5 and 25%. At various times after exposure to drug the animals were anaesthetised and challenged with varying doses of histamine. Total airway resistance and mean arterial blood pressure were recorded.

Data set [5] has as its system LPS induced TNF-α release from human monocytes. Nature of the data set: LPS induced TNF-α release from human monocytes. It counts as cell-based. The following applies: Monocyte.
The subject of data set [6] is recruitment of eosinophils to the lungs. Kind of data set: Antigen induced eosinophilia in the ovalbumin sensitised guinea-pig. It counts as in vivo. As to the method:
3. […] Further experiments were carried out to characterise the duration of action in this model.

Data set [7] relates to guinea-pig isolated trachea. Kind of data set: Electrical-induced contraction of guinea-pig isolated trachea (superfused tracheal rings, electrical field stimulation). The following applies: 10 μM. As to the method:
Superfusion of guinea-pig tracheal rings was performed according to a previously described method (Coleman et al. 1996; Pulmonary Pharmacology, 9, 107–117). Briefly, guinea-pig tracheal preparations were cut into rings then opened by sectioning the ring opposite the smooth muscle and suspended between two platinum electrodes under 1 g tension. The tissues were superfased at a rate of 3.25 ml/min with Krebs-Henseleit solution at 37° C. containing the cyclooxygenase inhibitor, indomethacin (5 μM) and bubbled with 95% O2 and 5% CO2. Tracheal preparations were allowed to equilibrate for 40 min before commencement of electrical stimulation delivered as a 10 s train of square wave pulses at 3 Hz, 0.1 ms duration and 20V (approx. 400 mAmps) generated every 100 sec by means of physiological square wave-stimulator.
The compound of Example 1 was dissolved in DMSO containing Tween 80 (10%) and distilled water (0.01 M), which were then added to the organ bath to give a final concentration of 10 μM. The other compounds were prepared in DMSO and diluted in Krebs-Henseleit solution which yielded a final superfusion concentration of 0.05% DMSO, and superfused at a rate of 0.3 ml/min; contractile responses to electrical field stimulation was recorded on a Macintosh computer using MacLab software.

The test system of data set [8] is human mononuclear cells stimulated by PHA. Nature of the data set: Proliferation of human mononuclear cells stimulated by PHA ([3H]-thymidine). The class given is cell-based. As to the method: Normal healthy volunteers underwent phlebotomy and 25 ml of blood was collected. Mononuclear cells were separated and purified according to the method of Banner et al (Banner et al Br. J. Pharmacol. 116 3169–3174 (1995)). Human peripheral mononuclear cells (100,000 per well) were stimulated for 24 h with phytohaemagglutinin (PHA, 2 μ/ml) in the absence or presence of the compound of Example 1 (0.001–100 μM) at 37° C. in a 95% air, 5% CO2 atmosphere. Twenty four hours later, [3H]-thymidine (0.1 μCi) was added to each well and the cells were incubated for a further 24 h period. Cells were then harvested onto glass fibre filters using a cell harvester (ICN Flow, Buckinghamshire) and counted in a scintillation counter.

T1 sequence (Q14432 whole entry): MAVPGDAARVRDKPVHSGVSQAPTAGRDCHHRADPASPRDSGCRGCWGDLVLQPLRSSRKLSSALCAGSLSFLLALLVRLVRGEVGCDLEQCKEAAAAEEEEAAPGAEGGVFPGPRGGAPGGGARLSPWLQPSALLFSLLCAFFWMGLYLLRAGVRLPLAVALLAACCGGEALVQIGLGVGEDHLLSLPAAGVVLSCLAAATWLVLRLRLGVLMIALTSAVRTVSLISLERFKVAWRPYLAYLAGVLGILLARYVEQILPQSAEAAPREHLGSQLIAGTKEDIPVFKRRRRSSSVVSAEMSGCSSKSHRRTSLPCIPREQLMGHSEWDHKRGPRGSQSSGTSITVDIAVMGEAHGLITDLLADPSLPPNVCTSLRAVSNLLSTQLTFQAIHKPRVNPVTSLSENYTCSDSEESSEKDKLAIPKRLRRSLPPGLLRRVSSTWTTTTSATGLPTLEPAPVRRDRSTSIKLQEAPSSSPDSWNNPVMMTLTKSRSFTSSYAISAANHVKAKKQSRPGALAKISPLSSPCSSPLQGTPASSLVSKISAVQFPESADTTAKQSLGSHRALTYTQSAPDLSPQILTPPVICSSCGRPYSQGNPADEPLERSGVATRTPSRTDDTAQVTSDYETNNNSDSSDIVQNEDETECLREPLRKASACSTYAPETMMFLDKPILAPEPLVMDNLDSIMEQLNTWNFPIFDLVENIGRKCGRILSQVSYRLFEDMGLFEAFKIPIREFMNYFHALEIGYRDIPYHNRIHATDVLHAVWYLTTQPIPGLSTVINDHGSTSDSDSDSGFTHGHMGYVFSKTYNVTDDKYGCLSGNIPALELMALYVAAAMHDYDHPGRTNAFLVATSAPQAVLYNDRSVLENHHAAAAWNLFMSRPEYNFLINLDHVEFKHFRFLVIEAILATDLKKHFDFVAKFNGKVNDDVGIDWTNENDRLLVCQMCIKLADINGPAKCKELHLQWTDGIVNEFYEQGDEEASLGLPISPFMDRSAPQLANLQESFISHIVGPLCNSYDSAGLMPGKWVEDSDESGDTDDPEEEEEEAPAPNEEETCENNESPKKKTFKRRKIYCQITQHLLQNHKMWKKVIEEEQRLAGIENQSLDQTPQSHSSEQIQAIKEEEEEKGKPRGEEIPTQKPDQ

In the case of `COc1cc2c(cc1OC)-c1c/c(=N\c3c(C)cc(C)cc3C)n(CCNC(N)=O)c(=O)n1CC2` [Example 1, 9,10-Dimethoxy-2-(2,4,6-trimethylphenylimino)3-(N-carbamoyl-2-aminoethyl)-3,4,6,7-tetrahydro-2H-pyrimido[6,1-a]isoquinolin-4-one], the IC50 in data set [1] was determined as 0.43 nM; in data set [2], 1480 nM; in data set [5] (n = 6), 7.5 nM; in data set [8] (Homo sapiens, 95% confidence limits in brackets, n=6, read-out: IC50 against proliferation of human mononuclear cells stimulated with PHA) it was 460 nM. The “mean arterial blood pressure” value in data set [3] is “dose dependant reduction”. In data set [4] (conscious guinea-pigs), the “protection against histamine induced bronchospasm” value is “significant protection”. For the same compound, the mean blood pressure result in data set [4] (guinea-pigs) is “reduced mean blood pressure”. Further, the “recruitment of eosinophils to the lungs following antigen challenge” value in data set [6] (10 mg/kg orally 1 hour prior to antigen challenge) was “significantly inhibited”; in data set [6] (dry powder (25%) 1.5 hours prior to antigen challenge, measured 24 hours after challenge) it was “significantly inhibited”; in data set [6] (dry powder (25%) 5.5 hours before antigen challenge), “failed to significantly inhibit”. Moreover, the “effect on contractile responses (electrical-induced contraction of guinea-pig isolated trachea)” value (shortened to “effect on contractile responses”) in data set [7] was “inhibit the contractile responses with a long duration of action”. The “proliferation of human mononuclear cells stimulated by PHA” value in data set [8] (0.001–100 μM) is “significantly inhibited”.

On to `CN/C(=N\C#N)NCCn1c(=O)n2c(c/c1=N\c1c(C)cc(C)cc1C)-c1cc(OC)c(OC)cc1CC2` [Example 13, 3-[N-(N′-Cyano-N″-methyl)-2-guanidinoethyl]-9,10-dimethoxy-2-(2,4,6-trimethyl-phenylimino)-3,4,6,7-tetrahydro-2H-pyrimido[6,1-a]isoquinolin-4-one], for which the “effect on contractile responses” value in data set [7] is given as “inhibit the contractile responses with a long duration of action”.

For `COc1cc2c(cc1OC)-c1c/c(=N\c3ccccc3C)n(CCNC(N)=O)c(=O)n1CC2` [Example 10, 3-(N-Carbamoyl-2-aminoethyl)-9,10-dimethoxy-2-(2-methylphenylimino)-3,4,6,7-tetrahydro-2H-pyrimido[6,1-a]isoquinolin-4-one], the “effect on contractile responses” value in data set [7] is “inhibit the contractile responses with a long duration of action”.

Take `COc1cc2c(cc1OC)-c1c/c(=N\c3c(C(C)C)cccc3C(C)C)n(CCNC(N)=O)c(=O)n1CC2` [Example 11]: the “effect on contractile responses” value in data set [7] was “inhibit the contractile responses with a long duration of action”.

As for `COc1ccc([C@H](Cc2ccncc2)c2ccccc2)cc1OC1CCCC1` [CDP 840], the IC50 in data set [5] (n = 6) turned out to be 92 nM.

As for `COc1cc2c(cc1OC)-c1c/c(=N\c3c(C)cc(C)cc3C)n(CCNC(=O)NC3CCCCC3)c(=O)n1CC2` [Example 9], the “effect on contractile responses” value in data set [7] is on record as “inhibit the contractile responses with a long duration of action”.

Compound `CN/C(=N\c1ccc(C2=NNC(=O)CC2C)cc1)NC#N` (stereo not shown) [Siguazodan] gave an IC50 in data set [5] greater than 100000 nM.

With `COc1cc2c(cc1OC)-c1c/c(=N\c3c(C)cc(C)cc3C)n(CCN/C(N)=N/[N+](=O)[O-])c(=O)n1CC2` [Example 8, 9,10-Dimethoxy-3-[N-(N′-nitro)-2-guanidinoethyl]-2-(2,4,6-trimethylphenylimino)-3,4,6,7-tetrahydro-2H-pyrimido[6,1-a]isoquinolin-4-one], the “effect on contractile responses” value in data set [7] is on record as “inhibit the contractile responses with a long duration of action”.

Values taken from US7105663B2, “Derivatives of pyrimido[6,1-a]isoquinolin-4-one” (Rhinopharma Limited, priority 1999, dated 2006).
